The values below are quoted from earlier work in patent US4657924A, “Nafazatrom as a lipoxygenase inhibitor” (priority 1983, dated 1987).

For series [1], the system named is cyclooxygenase. The note with it: stated disadvantage; cited from earlier work.
For series [2], the system named is synthesis of prostaglandins from arachidonic acid. The note with it: comparison with nafazatrom; cited from earlier work.

As for `CC(Cc1ccc(O)c(O)c1)C(C)Cc1ccc(O)c(O)c1` (stereo not shown) [nordihydroguaiaretic acid], the “activity of known lipoxygenase inhibitors as cyclooxygenase inhibitors” value (shortened to “activity … as cyclooxygenase inhibitors”) in series [1] is reported as “either at the same time active as cyclooxygenase inhibitors or active only in very high concentrations”. In the case of `COc1ccc2c(c1)c(CC(=O)O)c(C)n2C(=O)c1ccc(Cl)cc1` [indomethacin], in series [2], the “action on the synthesis of prostaglandins from arachidonic acid” value is reported as “overall inhibiting action”. As for `CCCCCC#CCC#CCC#CCC#CCCCC(=O)O` [5,8,11,14-eicosatetrainoic acid], in series [1], the “activity … as cyclooxygenase inhibitors” value is listed as “either at the same time active as cyclooxygenase inhibitors or active only in very high concentrations”. Regarding `O=C1CCN(c2ccccc2)N1` [phenidone], in series [1], the “activity … as cyclooxygenase inhibitors” value was “either at the same time active as cyclooxygenase inhibitors or active only in very high concentrations”.
